According to patent US20050085491A1, “Novel crystalline forms of valacyclovir hydrochloride” (priority 2003, published 2005):
“Also recorded” adds a separate entry of the source.

Columns and labels:
[1] = transformation of crystalline form on drying or squeezing (form identified by XRD); format: physicochemical
Method: All powder x-ray diffraction patterns were obtained by methods known in the art using a Scintag X′TRA X-ray powder diffractometer, equipped with a solid state Si(Li) detector thermoelectrically cooled, at scanning speed of 3° min.^−1. The scanning range was 2-40 degrees two-theta. Copper radiation of […] was used. The term x-ray diffraction “peaks” as used herein refers to x-ray diffraction reflections measured using an x-ray powder diffractometer. “Wet” samples (i.e. samples not dried) were analyzed “as is”. Dry samples were gently ground before analysis.
In yet another embodiment, the present invention relates to transformation, especially by drying or thermal treatment, of herein disclosed crystalline forms of valacyclovir hydrochloride to valacyclovir hydrochloride form I.
In a further embodiment, the present invention relates to transformation, especially by drying or squeezing, of herein disclosed crystalline forms of valacyclovir hydrochloride to valacyclovir hydrochloride for IV.

[2] = transformation of crystalline form on exposure to relative humidity; format: physicochemical; conditions: atmosphere of about 50% relative humidity for a day or more
[3] = oral administration, healthy adults; cited from earlier work
[4] = oral administration; cited from earlier work
[5] = drying, conditions not stated, hydrochloride
[6] = drying at 50° to 60° C. for about 30 min or more, hydrochloride

## CC(C)[C@H](N)C(=O)OCCOCn1cnc2c(=O)nc(N)[nH]c21.Cl [form V, valacyclovir hydrochloride]
[1]; dried at 50° C. under vacuum, hydrochloride
  crystalline form before and after drying: valacyclovir hydrochloride form V
[1]; [5]
  crystalline form obtained on drying: form V

## CC(C)[C@H](N)C(=O)OCCOCn1cnc2c(=O)nc(N)[nH]c21.Cl [form VIII, valacyclovir hydrochloride]
[1]; drying at 20° to 120° C. for at least about 30 min
  crystalline form obtained on drying: yields a hydrate of valacyclovir hydrochloride form I
[1]; drying at 50-120° C.
  crystalline form obtained on drying: resulted in form I

## CC(C)[C@H](N)C(=O)OCCOCn1cnc2c(=O)nc(N)[nH]c21.Cl [form XI, valacyclovir hydrochloride]
[1]; about 700 mm Hg, about 35° C., after 16 hours, about 35% humidity
  crystalline form obtained on drying: form VIII
[1]; about 700 mm Hg, about 35° C., after 20 hours, 30% humidity
  crystalline form obtained on drying: form IV
[1]; [5]
  crystalline form obtained on drying: transformed to form I; also recorded: converted to form I
[1]; vacuum of 250-350 mm Hg at about 35 degrees up to humidity of about 20%
  crystalline form obtained on drying: form IV
[1]; water content reduced to about 15 to 25%, e.g. by drying at about 30° to about 50° C.
  crystalline form obtained on reducing the water content: transformation to form IV
[1]; wet sample squeezed on a Buchner filter up to humidity of about 20%
  crystalline form obtained on squeezing: form VIII

## CC(C)[C@H](N)C(=O)OCCOCn1cnc2c(=O)nc(N)[nH]c21.Cl [form XII, valacyclovir hydrochloride]
[2]
  crystalline form obtained on exposure to humidity: transformation to valacyclovir hydrochloride form I

## CC(C)[C@H](N)C(=O)OCCOCn1cnc2c(=O)nc(N)[nH]c21.Cl [form X, valacyclovir hydrochloride]
[1]; [6]
  crystalline form obtained on drying: yields a hydrate of valacyclovir form I

## CC(C)[C@H](N)C(=O)OCCOCn1cnc2c(=O)nc(N)[nH]c21.Cl [form IX, valacyclovir hydrochloride]
[1]; [6]
  crystalline form obtained on drying: yields an anhydrous form of valacyclovir hydrochloride
[1]; [5]
  crystalline form obtained on drying: mixture of form I and anhydrous form

## CC(C)[C@H](N)C(=O)OCCOCn1cnc2c(=O)[nH]c(N)nc21 [valacyclovir, 1-valine, 2-[(2-amino-1,6-dihydro-6-oxo-9H-purin-9-yl)methoxy]ethyl ester]
[3]
  conversion to acyclovir: converted rapidly and virtually completely to acyclovir
[4]
  absorption from the gastrointestinal tract: rapidly absorbed
